Data from US7723372B2, “Spiroindolinone derivatives” (Hoffman-La Roche Inc., priority 2008, dated 2010).

What follows are molecules tested against interaction between p53 and MDM2 proteins (recombinant GST-tagged MDM2, biotinylated p53 peptide) (Homo sapiens, UniProt Q00987) (assay: HTRF assay of inhibition of the p53-MDM2 interaction). Conditions: 0.02% BSA.
Format: binding
Experimental: The ability of the compounds to inhibit the interaction between p53 and MDM2 proteins was measured by an HTRF (homogeneous time-resolved fluorescence) assay in which recombinant GST-tagged MDM2 binds to a peptide that resembles the MDM2-interacting region of p53 (Lane et al.), Binding of GST-MDM2 protein and p53-peptide (biotinylated on its N-terminal end) is registered by the FRET (fluorescence resonance energy transfer) between Europium (Eu)-labeled ant-GST antibody and streptavidin-conjugated Allophycocyanin (APC).
[…] Add 10 uL diluted compounds (1:5 dilution in reaction buffer) to each well, mix by shaking. Add 20 uL biotinylated p53 peptide (180 nM working solution) in reaction buffer to each well and mix on shaker. Incubate at 37° C. for 1 h. Add 20 uL streptavidin-APC and Eu-anti-GST antibody mixture (6 nM Eu-anti-GST and 60 nM streptavidin-APC working solution) in TBS buffer with 0.2% BSA, shake at room temperature for 30 minutes and read using a TRF-capable plate reader at 665 and 615 nm (Victor 5, Perkin ElmerWallac). If not specified, the reagents were purchased from Sigma Chemical Co.

Chain of interaction between p53 and MDM2 proteins (recombinant GST-tagged MDM2, biotinylated p53 peptide) (Q00987 whole entry): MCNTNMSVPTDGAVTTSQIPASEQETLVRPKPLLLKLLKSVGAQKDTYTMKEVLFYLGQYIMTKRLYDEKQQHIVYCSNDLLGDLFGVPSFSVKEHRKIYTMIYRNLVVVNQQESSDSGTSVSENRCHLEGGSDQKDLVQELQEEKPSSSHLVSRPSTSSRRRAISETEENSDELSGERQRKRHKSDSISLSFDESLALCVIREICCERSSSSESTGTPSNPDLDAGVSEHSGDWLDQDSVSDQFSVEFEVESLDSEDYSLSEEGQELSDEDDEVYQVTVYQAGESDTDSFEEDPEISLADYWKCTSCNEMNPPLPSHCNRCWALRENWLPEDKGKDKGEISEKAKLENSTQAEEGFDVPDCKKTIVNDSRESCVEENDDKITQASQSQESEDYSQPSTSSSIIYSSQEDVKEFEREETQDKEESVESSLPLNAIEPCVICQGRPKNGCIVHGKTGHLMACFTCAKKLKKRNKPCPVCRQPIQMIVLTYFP

Structure (SMILES) | IC50
C=Cc1ccccc1C1=CC(=O)C[C@@H](c2cccc(Cl)c2)[C@]12C(=O)Nc1cc(Cl)ccc12 (racemic) [Example 44 (Compound A), rac-(1R,6S)-6′-chloro-6-(3-chlorophenyl)-2-(2-ethylenephenyl)spiro[2-cyclohexene-1,3′-[3H]indole]-2′,4(1′H)-dione] | 1.39 µM
C/C=C/C1=CC(=O)C[C@@H](c2cccc(Cl)c2)[C@]12C(=O)Nc1cc(Cl)ccc12 (racemic) [Example 10 (Compound B), rac-(1S,6S)-6′-chloro-6-(3-chlorophenyl)-2-(E)-(1-propenyl)spiro[2-cyclohexene-1,3′-[3H]indole]-2′,4(1′H)-dione] | 5.9 µM

The next lines start with the values.

IC50 | Structure (SMILES)
1.6 µM | Cc1ccc(F)cc1C1=C[C@@]2(C(=O)Nc3cc(Cl)ccc32)[C@H](c2cccc(Cl)c2)C[C@@H]1O (racemic) [Example 5, rac-(1R, 4S, 6S)-6′-chloro-6-(3-chlorophenyl)-3-(5-fluoro-2-methylphenyl)-4-hydroxyspiro[2-cyclohexene-1,3′-[3H]indol]-2′(1′H)-one]
1.66 µM | O=C1C[C@@H](c2cccc(Cl)c2)[C@@]2(C=C1c1cc(F)ccc1O)C(=O)Nc1cc(Cl)ccc12 (racemic) [Example 17, rac-(1R,6S)-6′-chloro-6-(3-chlorophenyl)-3-(5-fluoro-2-hydroxyphenyl)spiro[2-cyclohexene-1,3′-[3H]indole]-2′,4(1′H)-dione]
2.99 µM | O=C1C[C@@H](c2cccc(Cl)c2)[C@@]2(C=C1c1ccc(F)cc1O)C(=O)Nc1cc(Cl)ccc12 (racemic) [Example 18, rac-(1R,6S)-6′-chloro-6-(3-chlorophenyl)-3-(4-fluoro-2-hydroxyphenyl)spiro[2-cyclohexene-1,3′-[3H]indole]-2′,4(1′H)-dione]
